This assay addresses T1, PDE5 enzyme isolated from human platelets (Homo sapiens, UniProt O76074).
T1 construct: The PDE5 enzyme for use in the assay can be obtained from human platelets; from tissue; host or cells: human platelets
Kind of assay: Alternative human platelet PDE5 enzyme inhibition scintillation proximity assay (Method 2). As to conditions: cGMP substrate 50 nM, 60 minutes at room temperature. It is filed as biochemical. An excerpt: The IC50 of a test compound can be measured using an in vitro assay using PDE5 enzyme isolated from human platelets. The IC50 is the concentration of test compound required to inhibit the hydrolysis of cGMP to GMP by the PDE5 enzyme by 50% relative to the activity of uninhibited controls. The PDE5 enzyme for use in the assay can be obtained from human platelets by appropriate modification of the method of Thompson, W J et al.; Biochemistry 18(23), 5228-5237, 1979, as described by Ballard S A et al.; J. Urology 159(6), 2164-2171, 1998. The PDE5 enzyme so obtained can be used to catalyze the hydrolysis of [^3H]cGMP (Amersham Biosciences) to 5′ nucleotide [^3H]GMP. The [^3H]GMP binds to yttrium silicate SPA beads (Amersham Biosciences) and is detected by scintillation counting. More specifically, the effect of a test compound at different concentrations can be evaluated in the assay by contacting the compound with a fixed amount of PDE5 enzyme in the presence of substrate (cGMP […] in a 3:1 ratio unlabelled to [^3H]-labeled). Scintillation counting can be used as described above to determine relative PDE5 enzyme activity. The inhibition of PDE5 enzyme activity is then calculated relative to total PDE5 enzyme activity of uninhibited controls.
Method 2: Alternative Human Platelet PDE5 Enzyme Inhibition Scintillation Proximity Assay
PDE5 IC50 Assay: 96-Well Microtiter Plate Format
Buffer A: 20 mM Tris-HCl, 5 mM MgCl2, pH 7.4
Buffer B: 2 mg/ml BSA in Buffer A (enzyme buffer)
cGMP substrate: Final concentration of 50 nM in assay
The amount of ^3H-labeled substrate added depends upon the specific activity of [^3H]cGMP, and it is diluted in Buffer A.
PDE enzyme: Prepared in Buffer B. The dilution factor is determined by enzyme activity.
SPA beads: 4 mg/ml suspension prepared in dH2O.
Stocks of standard and test compound are prepared at 2 mM in 100% DMSO. The test compound is serially diluted in a dilution plate using an 8-point ⅕ log dilution format such that the starting concentration in the assay is 2 μM for an initial IC50 screen. 27 μl of Buffer A are added to the wells of the assay plates. From the dilution plate, 3 μl of diluted compound is delivered in duplicate or 3 μl of 100% DMSO (for positive and negative controls) are added. 30 μl of enzyme are added. For the negative control wells, Buffer B is substituted in place of the enzyme. 30 μl of labeled substrate are added to all wells.
After incubating for 60 minutes at room temperature, the reaction is stopped with the addition of 30 μl of the yttrium silicate beads. These beads are dense and require constant agitation while being added to the plate. The plates are sealed and shaken on a plate shaker for fifteen minutes to allow the beads to bind the GMP product.
After allowing the beads to settle for 30 minutes, plates are read on a NXT TopCount scintillation counter and the data are analyzed as follows. Percent inhibition values are calculated using the means of the 0% and 100% controls on each plate. The estimates of the 4-parameters of the logistic, sigmoid dose-response model are then calculated using the well-level percent inhibition value for the compound. The formula for the four-parameter logistic model may be expressed as Y=((a−d)/(1+(X/c)^b))+d, where Y is the response, X is the concentration, a is the lower asymptote (minimum response), d is the upper asymptote (maximum response), c is the model IC50 (in the same units as X), and b is the slope (as described in De Lean, A., P. J. Munson, and D. Rodbard (“Simultaneous analysis of families of sigmoidal curves: application to bioassay, radioligand assay, and physiological dose-response curves.” Am. J. Physiol. 235(2): E97-E102, 1978). These estimates are used to calculate the concentration that corresponds to 50% inhibition.
Compounds were tested in accordance with Method 2 above yielding the IC50 values described in Table C.
In general terms: SPA uses beads or plates that emit light when radiolabelled molecules are held near them.
For orientation: IC50 means the point on the concentration scale where inhibition reaches its midpoint. Read a high IC50 as weaker potency. Take `CCCOCCn1c(=O)c(N2CCCN(CCO)CC2)nc2cnc(-c3ccc(OC)nc3)cc21` [Example 12, 3-[4-(2-hydroxyethyl)-1,4-diazepan-1-yl]-7-(6-methoxypyridin-3-yl)-1-(2-propoxyethyl)pyrido[3,4-b]pyrazin-2(1H)-one]: the IC50 was determined as 0.721 nM. `CCCOCCn1c(=O)c(N2CCN(CCO)CC2)nc2cnc(-c3ccc(C(C)=O)s3)cc21` [Example 28, 7-(5-acetylthiophen-2-yl)-3-(4-(2-hydroxyethyl)piperazin-1-yl)-1-(2-propoxyethyl)pyrido[3,4-b]pyrazin-2(1H)-one] gave a 50% inhibitory concentration (IC50) of 43.1 nM. The figure for `CCCOCCn1c(=O)c(N2CCN(CCO)CC2)nc2cnc(-c3cccnc3)cc21` [Example 31, 3-(4-(2-hydroxyethyl)piperazin-1-yl)-1-(2-propoxyethyl)-7-(pyridin-3-yl)pyrido[3,4-b]pyrazin-2(1H)-one] is 45.8 nM; for `CCCOCCn1c(=O)c(N2CCC(O)C2)nc2cnc(-c3ccc(OC)nc3)cc21` (centres unmarked) [Example 42, 3-(3-hydroxypyrrolidin-1-yl)-7-(6-methoxypyridin-3-yl)-1-(2-Propoxyethyl)pyrido[3,4-b]pyrazin-2(1H)-one] it is 0.421 nM. Then `CCCOCCn1c(=O)c(N2CCN(CC)CC2)nc2cnc(-c3ccc(OC)nc3)cc21` [Example 39, 3-(4-ethylpiperazin-1-yl)-7-(6-methoxypyridin-3-yl)-1-(2-propoxyethyl)pyrido[3,4-b]pyrazin-2(1H)-one], with 0.217 nM; and `CCCOCCn1c(=O)c(N2CCN(CCO)CC2)nc2cnc(-c3ccccc3O)cc21` [Example 37, 3-(4-(2-hydroxyethyl)piperazin-1-yl)-7-(2-hydroxyphenyl)-1-(2-propoxyethyl)pyrido[3,4-b]pyrazin-2(1H)-one], with 18.1 nM; and `CCCOCCn1c(=O)c(N2CCN(CCO)CC2)nc2cnc(-c3ccc(OC)nc3)cc21` [Example 5, 3-[4-(2-hydroxyethyl)piperazin-1-yl]-7-(6-methoxypyridin-3-yl)-1-(2-propoxyethyl)pyrido[3,4-b]pyrazin-2(1H)-one], with 0.203 nM. Then “7-(4-(dimethylamino)-2-methylphenyl)-3-(4-(2-hydroxyethyl)piperazin-1-yl)-1-(2-propoxyethyl)pyrido[3,4-b]pyrazin-2(1H)-one [Example 15]”, with 1190 nM; and `CCCOCCn1c(=O)c(N2CCN([C@H](C)[C@@H](C)O)CC2)nc2cnc(-c3ccc(OC)nc3)cc21` [Example 45, 3-(4-((2R,3R)-3-hydroxybutan-2-yl)piperazin-1-yl)-7-(6-methoxypyridin-3-yl)-1-(2-propoxyethyl)pyrido[3,4-b]pyrazin-2(1H)-one], with 0.295 nM; and `CCCOCCn1c(=O)c(N2CCN(CCO)CC2)nc2cnc(-c3ccc(S(=O)(=O)CC)cc3)cc21` [Example 19, 7-(4-(ethylsulfonyl)phenyl)-3-(4-(2-hydroxyethyl)piperazin-1-yl)-1-(2-propoxyethyl)pyrido[3,4-b]pyrazin-2(1H)-one], with 102 nM. The compound `CCCOCCn1c(=O)c(N2CCN(CCO)[C@@H](C)C2)nc2cnc(-c3ccc(OC)nc3)cc21` [Example 9, 3-[(3S)-4-(2-hydroxyethyl)-3-methylpiperazin-1-yl]-7-(6-methoxypyridin-3-yl)-1-(2-propoxyethyl)pyrido[3,4-b]pyrazin-2(1H)-one] returned a half-inhibitory concentration (IC50) of 0.248 nM. Compared with the last compound, the IC50 is about 410-fold lower.

Values taken from patent US7902195B2, “Pyridine [3,4-b] pyrazinones” (Pharmacia & Upjohn Company LLC, priority 2006, dated 2011).
